Laboratory results as given in patent US10894793B2, “Bicyclic pyridine, pyrazine, and pyrimidine derivatives as PI3K beta inhibitors” (Janssen Pharmaceutica NV, priority 2016, dated 2021).
Like-named read-outs stand apart in the source and are kept apart here.

Key:
[1] = target: T1, MTOR_h (Homo sapiens, UniProt P42345); test: Enzyme binding assay (KINOMEscan); conditions: DiscoveRx
T1 construct: purchased DiscoveRx Corporation
Experimental: (§1) Enzyme Binding Assays (KINOMEscan®)
(§2) Kinase enzyme binding affinities of compounds disclosed herein were determined using the KINOMEscan technology performed by DiscoveRx Corporation, San Diego, Calif., USA (www.kinomescan.com). Table A reports the obtained Kd values (nM), with the Kd being the inhibitor binding constant: […]

[2] = target: T2, PIK3Cγ_h (Homo sapiens, UniProt P48736); test: Enzyme binding assay (KINOMEscan); conditions: DiscoveRx
T2 construct: purchased DiscoveRx Corporation
T2 sequence (P48736 whole entry): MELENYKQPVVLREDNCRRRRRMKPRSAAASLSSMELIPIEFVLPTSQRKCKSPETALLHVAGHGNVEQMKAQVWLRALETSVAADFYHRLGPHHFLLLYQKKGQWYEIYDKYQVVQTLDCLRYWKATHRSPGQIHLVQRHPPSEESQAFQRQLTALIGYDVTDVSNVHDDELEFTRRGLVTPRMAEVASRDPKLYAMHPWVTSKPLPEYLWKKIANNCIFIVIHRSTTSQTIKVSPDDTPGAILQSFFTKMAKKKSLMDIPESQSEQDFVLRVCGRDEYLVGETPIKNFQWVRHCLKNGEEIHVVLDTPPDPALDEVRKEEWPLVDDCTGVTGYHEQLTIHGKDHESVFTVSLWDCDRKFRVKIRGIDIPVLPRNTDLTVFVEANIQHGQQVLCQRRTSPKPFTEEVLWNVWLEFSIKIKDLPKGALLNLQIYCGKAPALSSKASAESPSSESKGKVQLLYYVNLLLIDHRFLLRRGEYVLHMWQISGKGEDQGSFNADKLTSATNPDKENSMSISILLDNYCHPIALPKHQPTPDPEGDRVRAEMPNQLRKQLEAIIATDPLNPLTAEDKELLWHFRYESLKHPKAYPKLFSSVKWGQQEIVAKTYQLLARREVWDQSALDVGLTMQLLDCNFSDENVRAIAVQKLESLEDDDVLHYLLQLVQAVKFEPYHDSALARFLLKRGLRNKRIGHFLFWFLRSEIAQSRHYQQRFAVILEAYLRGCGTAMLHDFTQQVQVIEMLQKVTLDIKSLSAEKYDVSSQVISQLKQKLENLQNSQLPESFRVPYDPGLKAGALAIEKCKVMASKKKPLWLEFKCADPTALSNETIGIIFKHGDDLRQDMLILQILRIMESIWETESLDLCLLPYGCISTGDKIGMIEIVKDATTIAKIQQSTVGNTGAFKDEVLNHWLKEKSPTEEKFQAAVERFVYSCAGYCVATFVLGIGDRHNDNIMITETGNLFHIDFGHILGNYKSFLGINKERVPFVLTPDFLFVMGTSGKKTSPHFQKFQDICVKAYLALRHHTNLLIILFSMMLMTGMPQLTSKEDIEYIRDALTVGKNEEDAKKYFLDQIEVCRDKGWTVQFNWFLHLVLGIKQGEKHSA
Experimental: as §1, §2

[3] = target: T3, PIK3Cα_h (Homo sapiens, UniProt P42336); test: Enzyme binding assay (KINOMEscan); conditions: DiscoveRx
T3 construct: purchased DiscoveRx Corporation
T3 sequence (P42336 whole entry): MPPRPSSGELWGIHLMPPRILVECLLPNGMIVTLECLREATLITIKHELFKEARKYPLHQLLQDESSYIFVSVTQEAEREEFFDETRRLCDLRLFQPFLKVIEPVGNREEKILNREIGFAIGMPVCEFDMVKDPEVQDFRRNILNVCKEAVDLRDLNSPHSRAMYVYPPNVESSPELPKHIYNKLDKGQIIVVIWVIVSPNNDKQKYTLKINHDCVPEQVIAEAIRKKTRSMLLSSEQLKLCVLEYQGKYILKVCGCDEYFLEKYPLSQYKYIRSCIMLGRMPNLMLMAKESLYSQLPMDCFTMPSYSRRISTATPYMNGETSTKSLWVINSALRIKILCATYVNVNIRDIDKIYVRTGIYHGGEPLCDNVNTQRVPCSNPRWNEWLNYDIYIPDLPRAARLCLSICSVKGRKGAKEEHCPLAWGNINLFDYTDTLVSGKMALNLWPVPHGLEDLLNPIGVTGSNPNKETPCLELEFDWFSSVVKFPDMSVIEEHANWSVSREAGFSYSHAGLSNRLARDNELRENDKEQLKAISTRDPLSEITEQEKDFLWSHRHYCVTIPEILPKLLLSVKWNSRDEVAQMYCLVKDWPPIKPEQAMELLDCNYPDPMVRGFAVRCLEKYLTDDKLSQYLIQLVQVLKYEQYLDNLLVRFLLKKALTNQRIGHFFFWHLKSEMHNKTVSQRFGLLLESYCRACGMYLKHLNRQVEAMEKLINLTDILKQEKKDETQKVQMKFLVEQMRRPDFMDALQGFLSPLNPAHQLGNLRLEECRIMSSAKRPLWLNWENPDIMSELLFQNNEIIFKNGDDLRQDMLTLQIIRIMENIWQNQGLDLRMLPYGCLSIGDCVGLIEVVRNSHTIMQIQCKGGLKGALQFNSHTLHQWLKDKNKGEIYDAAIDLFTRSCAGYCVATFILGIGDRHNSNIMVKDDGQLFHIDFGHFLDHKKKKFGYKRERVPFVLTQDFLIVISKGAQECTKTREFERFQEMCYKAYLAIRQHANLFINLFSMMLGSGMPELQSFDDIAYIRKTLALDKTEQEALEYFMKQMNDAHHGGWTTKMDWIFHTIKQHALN
Experimental: as §1, §2

[4] = target: T4, PIK3Cβ_h (Homo sapiens, UniProt P42338); test: Enzyme binding assay (KINOMEscan); conditions: DiscoveRx
T4 construct: purchased DiscoveRx Corporation
T4 sequence (P42338 whole entry): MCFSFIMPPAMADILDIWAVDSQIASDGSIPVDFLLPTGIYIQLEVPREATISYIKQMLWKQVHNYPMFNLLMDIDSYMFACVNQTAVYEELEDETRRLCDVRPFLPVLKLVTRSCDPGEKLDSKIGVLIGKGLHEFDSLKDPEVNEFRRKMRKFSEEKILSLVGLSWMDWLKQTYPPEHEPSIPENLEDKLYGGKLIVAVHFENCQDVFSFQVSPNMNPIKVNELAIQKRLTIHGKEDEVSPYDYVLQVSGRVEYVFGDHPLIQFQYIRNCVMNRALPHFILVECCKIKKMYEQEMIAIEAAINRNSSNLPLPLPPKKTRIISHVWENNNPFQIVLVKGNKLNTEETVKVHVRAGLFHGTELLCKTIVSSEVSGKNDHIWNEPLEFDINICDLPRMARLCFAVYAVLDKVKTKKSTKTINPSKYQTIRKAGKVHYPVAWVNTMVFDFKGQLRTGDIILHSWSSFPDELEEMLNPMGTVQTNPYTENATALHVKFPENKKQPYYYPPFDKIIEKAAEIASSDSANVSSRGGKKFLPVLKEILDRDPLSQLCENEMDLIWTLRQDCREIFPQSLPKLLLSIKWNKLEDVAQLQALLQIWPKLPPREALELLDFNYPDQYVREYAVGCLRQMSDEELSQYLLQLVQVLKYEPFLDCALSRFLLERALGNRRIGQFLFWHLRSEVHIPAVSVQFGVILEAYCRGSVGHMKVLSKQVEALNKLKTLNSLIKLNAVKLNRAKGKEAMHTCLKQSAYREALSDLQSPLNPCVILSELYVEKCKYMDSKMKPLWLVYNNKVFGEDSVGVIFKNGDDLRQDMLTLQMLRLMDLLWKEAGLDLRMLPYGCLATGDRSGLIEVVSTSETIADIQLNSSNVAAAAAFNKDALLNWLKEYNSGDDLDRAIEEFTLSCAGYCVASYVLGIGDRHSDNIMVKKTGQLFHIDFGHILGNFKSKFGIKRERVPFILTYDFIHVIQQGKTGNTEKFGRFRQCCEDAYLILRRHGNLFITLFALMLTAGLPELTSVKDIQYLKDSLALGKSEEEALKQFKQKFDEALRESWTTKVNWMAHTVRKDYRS
Experimental: as §1, §2

[5] = target: T5, PIK3Cδ_h (Homo sapiens, UniProt O00329); test: Enzyme binding assay (KINOMEscan); conditions: DiscoveRx
T5 construct: purchased DiscoveRx Corporation
T5 sequence (O00329 1-1044): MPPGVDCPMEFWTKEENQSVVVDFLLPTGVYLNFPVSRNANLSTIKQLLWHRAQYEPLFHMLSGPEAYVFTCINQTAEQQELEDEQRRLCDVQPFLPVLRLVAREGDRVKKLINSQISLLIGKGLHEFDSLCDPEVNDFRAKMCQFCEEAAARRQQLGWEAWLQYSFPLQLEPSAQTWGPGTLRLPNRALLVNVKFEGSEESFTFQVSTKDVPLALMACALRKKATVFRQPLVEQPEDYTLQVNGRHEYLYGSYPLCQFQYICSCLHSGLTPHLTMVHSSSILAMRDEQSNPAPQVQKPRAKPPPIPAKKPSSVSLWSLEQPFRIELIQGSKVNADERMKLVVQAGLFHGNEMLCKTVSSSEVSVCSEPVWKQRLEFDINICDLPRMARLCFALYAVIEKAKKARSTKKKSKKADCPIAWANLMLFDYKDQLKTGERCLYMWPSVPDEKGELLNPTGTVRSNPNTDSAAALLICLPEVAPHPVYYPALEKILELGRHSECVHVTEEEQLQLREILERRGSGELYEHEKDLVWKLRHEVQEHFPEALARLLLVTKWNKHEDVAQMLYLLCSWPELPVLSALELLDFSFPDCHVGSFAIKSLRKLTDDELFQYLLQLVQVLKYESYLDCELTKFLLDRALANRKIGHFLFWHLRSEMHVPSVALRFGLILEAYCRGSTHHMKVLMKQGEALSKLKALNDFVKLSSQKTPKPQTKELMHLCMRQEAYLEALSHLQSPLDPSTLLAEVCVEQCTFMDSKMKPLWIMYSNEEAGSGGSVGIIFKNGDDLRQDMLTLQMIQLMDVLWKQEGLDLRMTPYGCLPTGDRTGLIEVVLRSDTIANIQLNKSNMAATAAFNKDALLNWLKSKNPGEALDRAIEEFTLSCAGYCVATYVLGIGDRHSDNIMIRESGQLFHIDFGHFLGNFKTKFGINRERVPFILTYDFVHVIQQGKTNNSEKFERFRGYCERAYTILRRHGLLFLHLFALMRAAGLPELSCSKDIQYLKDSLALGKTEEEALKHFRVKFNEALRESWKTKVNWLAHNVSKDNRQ
Experimental: as §1, §2

[6] = system: Akt phosphorylated at Thr308 in PC-3 cells; test: Cellular assay: phosphorylation of Akt (Thr308) in PC-3 cells, MSD ELISA; type: cell-based; conditions: 60 min compound incubation, read-out: IC50 pAkt_Thr308
Experimental: (§3) Cellular activity of PI3Kβ inhibitors was determined by quantifying the phosphorylation of Akt in PC-3 cells. Akt phosphorylated at Ser473 and Thr308 were measured using an enzyme-linked immunosorbent assay (ELISA; Meso Scale Discovery (MSD), Gaithersburg, Md.) and specific primary antibodies from MSD.
(§4) On day 1, PC3 cells (ATCC #[…]) were seeded into PerkinElmer MW96 plates at 25.000 cells per well, in 75 μl complete culture medium (DMEM high glucose, AQmedia™, D0819, Sigma-Aldrich) containing 10% heat inactivated FCS and incubated at 37° C., […] during 24 hours. On day 2, compound or DMSO (0.3%) was added and cells were further incubated for 60 min at 37° C., 5% CO2 in a total volume of 100 μl of medium.
(§5) The phosphoprotein assay was executed according to vendor instructions in the Phospho-Akt (Ser473) Assay Whole Cell Lysate Kit (MSD #K15100D-3) and the Phospho-Akt (Thr308) Assay Whole Cell Lysate Kit (MSD #K151DYD-3) using the lysis, blocking and wash buffer provided.
(§6) Briefly, at the end of the cell treatment period, media were removed by aspiration and adherent cells were lysed in 50 μl ice-cold lysis buffer. MSD plates are supplied pre-coated with capture antibodies for Phospho-Akt (Ser473 and Thr308). After blocking, lysates from tissue culture plates were added and plates were washed. Then, a solution containing the detection antibody (anti-total Akt conjugated with an electrochemiluminescent compound-MSD Sulfo-tag label) was added. The signals were detected using an MSD SECTOR Imager 6000 and are proportional to the phospho-Akt titres.
(§7) Data were processed. The percentage of inhibition was plotted against the log concentration of test compounds, and the sigmoidal log concentration-effect curve of best fit was calculated by nonlinear regression analysis. From these concentration-response curves, the IC50 values were calculated. Five concentrations were used for curve fitting.

[7] = system: Akt phosphorylated at Ser473 in PC-3 cells; test: Cellular assay: phosphorylation of Akt (Ser473) in PC-3 cells, MSD ELISA; type: cell-based; conditions: 60 min compound incubation, read-out: IC50 pAkt_S473
Experimental: as §3, §4, §5, §6, §7

| Structure (SMILES) | Kd [1] | Kd [2] | Kd [3] | Kd [4] | Kd [5] | IC50 ([6]; Homo sapiens, PC-3, 1 h) | IC50 ([7]; Homo sapiens, PC-3, 1 h) | melting point | IC50 [6] | IC50 [7] |
| --- | --- | --- | --- | --- | --- | --- | --- | --- | --- | --- |
| Cc1c(Cc2c(CCO)nc3cnc(N4CCOCC4)cn23)cccc1C(F)(F)F [Compound 13] | > 30.2 µM | > 30.2 µM | 20.4 µM | 0.126 µM | 14.1 µM | > 0.513 µM | > 0.513 µM | 142 °C |  |  |
| Cc1c(Cc2c(C(=O)N3C[C@@H](C)N[C@@H](C)C3)nc3ncc(N4CCOCC4)cn23)cccc1C(F)(F)F [Compound 23] | > 30.2 µM | > 30.2 µM | > 30.2 µM | 0.0087 µM | 1.48 µM | ~0.219 µM | 0.389 µM | 130 °C |  |  |
| Cc1c(Cc2c(CN3CCC(CO)CC3)nc3cnc(N4CCOCC4)cn23)cccc1C(F)(F)F [Compound 10] | > 30.2 µM | > 30.2 µM | > 30.2 µM | 0.041 µM | 4.27 µM | > 0.513 µM | > 0.513 µM | 198 °C |  |  |
| Cc1nc2c(-c3c[nH]cn3)nc(C3=CCOCC3)cn2c1Cc1cccc(C(F)(F)F)c1C [Compound 6] | 2.17 µM | 4.7 µM | 0.343 µM | 0.0055 µM | 0.682 µM | 0.059 µM | 0.185 µM | 197 °C |  |  |
| CCOC(=O)Cc1nc2cnc(N3CCOCC3)cn2c1Cc1cccc(C(F)(F)F)c1C [Compound 17] |  |  |  |  |  |  |  | 135 °C |  |  |
| Cc1c(Cc2c(CNCCO)nc3ccc(N4CCOCC4)cn23)cccc1C(F)(F)F [Compound 34] | 23.2 µM | > 30.2 µM | 16.9 µM | 0.009 µM | 0.741 µM | 0.07 µM | 0.11 µM |  |  |  |
| Cc1nc2ccc(N3CCOCC3)cn2c1Cc1cccc(C(F)(F)F)c1C [Compound 27] | > 30.2 µM | > 30.2 µM | 9.55 µM | 0.363 µM | 2.57 µM | 0.417 µM | > 0.513 µM |  |  |  |
| Cc1c(Cc2c(CO)nc3c(-c4ncc[nH]4)cc(C4=CCOCC4)cn23)cccc1C(F)(F)F [Compound 43] | 1.67 µM | 1.92 µM | 0.585 µM | 0.0009 µM | 0.035 µM | ~0.059 µM | 0.052 µM |  |  |  |
| Cc1c(Cc2c(CN(C)CCO)nc3ccc(N4CCOCC4)cn23)cccc1C(F)(F)F [Compound 36] | > 30.2 µM | > 30.2 µM | > 30.2 µM | 0.022 µM | 2.14 µM | ~0.132 µM | ~0.224 µM |  |  |  |
| Cc1c(Cc2c(CN3C[C@@H](C)N[C@@H](C)C3)nc3cnc(N4CCOCC4)cn23)cccc1C(F)(F)F [Compound 11] | > 30.2 µM | > 30.2 µM | > 30.2 µM | 0.12 µM | 8.13 µM | > 0.513 µM | > 0.513 µM |  |  |  |
| Cc1c(Cc2c(CN3CCCC4(CNC4)C3)nc3ccc(N4CCOCC4)cn23)cccc1C(F)(F)F [Compound 31] | > 30.2 µM | > 30.2 µM | > 30.2 µM | 0.02 µM | 1.35 µM | > 0.513 µM | 0.479 µM |  |  |  |
| Cc1c(Cc2c(CO)nc3c(-c4c[nH]cn4)cc(C4=CCOCC4)cn23)cccc1C(F)(F)F [Compound 41] | 0.2 µM | 0.324 µM | 0.096 µM | 0.0011 µM | 0.013 µM | 0.014 µM | 0.014 µM |  |  |  |
| Cc1c(Cc2c(CN3CCC4(CCS(=O)(=O)C4)C3)nc3ncc(N4CCOCC4)cn23)cccc1C(F)(F)F (single isomer, unassigned) [Compound 24a] | > 30.2 µM | > 30.2 µM | > 30.2 µM | 0.0065 µM | 0.759 µM |  |  |  | 0.17 µM | 0.347 µM |
| Cc1nc2c(CO)nc(C3=CCOCC3)cn2c1Cc1cccc(C(F)(F)F)c1C [Compound 4] | > 30.2 µM | 14.8 µM | 12 µM | 0.0076 µM | 3.02 µM | 0.479 µM | > 0.513 µM |  |  |  |
| Cc1c(Cc2c(CC(=O)N3C[C@@H](C)N[C@@H](C)C3)nc3cnc(N4CCOCC4)cn23)cccc1C(F)(F)F [Compound 14] | > 30.2 µM | > 30.2 µM | > 30.2 µM | 0.155 µM | 15.1 µM | > 0.513 µM | > 0.513 µM |  |  |  |
| Cc1c(Cc2c(CN3CCC4(CCS(=O)(=O)C4)C3)nc3ncc(N4CCOCC4)cn23)cccc1C(F)(F)F (stereo not drawn) [Compound 24] | > 30.2 µM | > 30.2 µM | 2.57 µM | 0.011 µM | 1.41 µM | ~0.174 µM | 0.288 µM |  |  |  |
| Cc1c(Cc2c(CN3CC4(C3)CS(=O)(=O)C4)nc3ccc(N4CCOCC4)cn23)cccc1C(F)(F)F [Compound 33] | > 30.2 µM | > 30.2 µM | 0.589 µM | 0.003 µM | 0.316 µM | 0.015 µM | 0.016 µM |  |  |  |
